Assay results taken from publication PMC7664408, “Biaryl Sulfonamides Based on the 2-Azabicycloalkane Skeleton—Synthesis and Antiproliferative Activity” (Materials, 2020).
Read-outs that look alike come from different tables or passages of the source.

How the values were obtained:
MV4-11 = assay: In vitro antiproliferative assay, MTT, 72 h; type: cell-based, human; settings: biphenotypic B cell myelomonocytic leukemia MV4-11, 72 h, n.a. = not active in the range of concentrations used (up to 100 µM), read-out: IC50 [µM] ± SD [n = 5] MV4-11
A549 = assay: In vitro antiproliferative assay, SRB, 72 h; type: cell-based, human; settings: lung cancer A549, 72 h, n.a. = not active in the range of concentrations used (up to 100 µM), read-out: IC50 [µM] ± SD [n = 5] A549
Excerpt: (§1) The following human cancer cell lines, representing the most common types of cancer, were chosen for evaluation of the antiproliferative activity of the prepared sulfonamides: lung cancer (A549), breast cancer (MCF-7), colon adenocarcinoma (LoVo), and biphenotypic B cell myelomonocytic leukemia (MV4-11). As a reference, the normal mouse fibroblasts cell line (BALB/3T3) was applied. A549, LoVo and BALB/3T3 cell lines were purchased from the ATCC (American Type Culture Collection, Rockville, MD, USA), MCF-7 cell line—from EACC (The European Collection of Cell Cultures), and MV4-11 cell line was obtained from DSMZ (Leibniz Institute—German Collection of Microorganisms and Cell Culture, Braunschweig, Germany). All these lines were maintained at the Hirszfeld Institute of Immunology and Experimental Therapy (IIET) in Wrocław, Poland.
(§2) We used the following culture media: for A549 cell line: the mixture of RPMI 1640 and OptiMEM (1:1) medium (both from Gibco, Scotland, UK)), 2mM L-glutamine, 1mM sodium pyruvate (Sigma-Aldrich Chemie GmbH, Steinheim, Germany) and 5% fetal bovine serum (FBS; HyClone Laboratories, Logan, UT, USA). MCF-7 cells were cultured in Eagle’s medium (IIET, PAS, Wroclaw, Poland), 2mM L-glutamine and 10% of FBS supplemented with 0.8 mg/L of insulin (Sigma-Aldrich Chemie GmbH, Steinheim, Germany). For LoVo cell line, F12K medium was applied (American Type Culture Collection, Rockville, MD, USA-ATCC), with 5% FBS (HyClone Laboratories, Logan, UT, USA). MV4-11 cells were cultured in RPMI 1640/GlutaMax I medium (Gibco, Thermo Fisher Scientific, Leicestershire, UK) with 1 mM sodium pyruvate (Sigma-Aldrich Chemie GmbH, Steinheim, Germany) and 10% FBS (HyClone Laboratories). In case of BALB/3T3 cells, DMEM (Gibco, Thermo Fisher Scientific) supplemented with 2 mM L-glutamine and 5% FBS was used. Antibiotics: 100 U/mL penicillin (Polfa Tarchomin SA, Warsaw, Poland) and 100 µg/mL streptomycin (Sigma-Aldrich Chemie GmbH, Steinheim, Germany) were present in all the culture media; cells were cultured in a humid atmosphere containing 5% CO2 at 37 °C.
(§3) Twenty-four hours before addition of the tested compounds, each cell line was seeded in 96-well plastic plates (Sarstedt, Numbrecht, Germany) in an appropriate medium at 10^4 cells/well density, except MCF7 cell line: 0.75 × 10^4/well, and A549 cell line: 0.25 × 10^4/well. The studied cell lines were subjected to each of the tested sulfonamides at 4 different concentrations in the range of 100–0.1 µg/mL for 72 h. Cisplatin (Teva Pharmaceuticals, Poland) was used as a reference compound, and DMSO (Sigma-Aldrich Chemie GmbH, Steinheim, Germany) served as a solvent control at concentrations equivalent to these applied in the solutions of the tested sulfonamides. MTT assay was performed for leukemic cells, while sulforhodamine B assay (SRB) for the adherent cells.
(§4) After 72 h of incubation, cells were fixed in situ by gently adding of 50 µL per well of ice-cold 50% TCA (trichloroacetic acid, POCh, Gliwice, Poland) and were incubated at 4 °C for one hour. Each well was then washed five times with water, followed by addition of 50 µL of 0.4% solution of SRB (sulforhodamine B, Sigma-Aldrich Chemie GmbH, Steinheim, Germany) in 1% acetic acid (POCh, Gliwice, Poland), and plates were again incubated at RT for 0.5 h. Plates were washed five times with 1% acetic acid to remove the unbound dye. The stained cells were treated with 10 mM TRIS (Tris base, Sigma-Aldrich, Chemie GmbH, Steinheim, Germany). Absorbance at 540 nm in each well was read with Elisa plate reader (BioTek Synergy H4, Swindon, UK) using the Gen5 software.
(§5) The results are shown as average IC50 values (concentration of the compound causing inhibition of cell proliferation by 50%) ± standard deviation. IC50 values were determined using the Prolab-3 system based on Cheburator 0.4, a software developed by Nevozhay. At each concentration, sulfonamides were tested in triplicates in a single experiment. […]

LoVo = assay: In vitro antiproliferative assay, SRB, 72 h; type: cell-based, human; settings: colon adenocarcinoma LoVo, n.a. = not active in the range of concentrations used (up to 100 µM), read-out: IC50 [µM] ± SD [n = 5] LoVo
Excerpt: as §1, §2, §3, §4, §5

MCF-7 = assay: In vitro antiproliferative assay, SRB, 72 h; type: cell-based, human; settings: n.a. = not active in the range of concentrations used (up to 100 µM), read-out: IC50 [µM] ± SD [n = 5] MCF-7
Excerpt: as §1, §2, §3, §4, §5

BALB/3T3 = assay: In vitro antiproliferative assay on normal fibroblasts, SRB, 72 h; type: cell-based, mouse; settings: for IC50: normal mouse fibroblasts BALB/3T3, 72 h, SRB, n.a. = not active in the range of concentrations used (up to 100 µM), read-out: IC50 [µM] ± SD [n = 5] Balb/3T3; for selectivity: IC50 value for BALB/3T3 line times bigger than for leukemia cells MV4-11: IC50 BALB/3T3 versus IC50 MV4-11
Excerpt: as §1, §2, §3, §4, §5

[1] = Homo sapiens, MCF7, breast cancer MCF-7, 72 h

| Structure (SMILES) | IC50 (MV4-11; Homo sapiens) | IC50 (A549; Homo sapiens) | IC50 (LoVo; Homo sapiens) | IC50 (MCF-7; [1]) | IC50 (BALB/3T3) | selectivity: IC50 value for BALB/3T3 line times bigger than for leukemia cells MV4-11 (BALB/3T3) | melting point | IC50 (MV4-11) | IC50 (A549) | IC50 (LoVo) | IC50 (MCF-7; breast cancer MCF-7, 72 h) |
| --- | --- | --- | --- | --- | --- | --- | --- | --- | --- | --- | --- |
| CC(c1ccccc1)N1CC(NS(=O)(=O)c2ccc(-c3ccccc3)cc2)C2CCC1C2 (centres unmarked) [Compound 9f] | 8.76 ± 3.45 µM | 13.6 ± 1.1 µM | 14.5 ± 2.54 µM | 18.8 ± 3.25 µM | 14.1 ± 2.63 µM | – | – | – | – | – | – |
| COc1ccc(-c2ccc(S(=O)(=O)NC3CN(C(C)c4ccccc4)C4CCC3C4)cc2)cc1 (centres unmarked) [Compound 9h] | 3.92 ± 1.74 µM | 9.13 ± 1.05 µM | 11.8 ± 2.46 µM | 16.3 ± 2.11 µM | 15.1 ± 2.11 µM | ~3 times | – | – | – | – | – |
| C[C@@H](c1ccccc1)N1C[C@@H](NS(=O)(=O)c2ccc(-c3ccc(F)cc3)cc2)[C@@H]2CC[C@H]1C2 [Compound 9i, 4’-fluoro-N-((1S,4S,5R)-2-((S)-1-phenylethyl)-2-azabicyclo[3.2.1]octan-4-yl)-[1,1’-biphenyl]-4-sulfonamide] | 12.3 ± 3.25 µM | 24.4 ± 0.9 µM | 13.3 ± 1.55 µM | 12.7 ± 4.91 µM | 14.3 ± 3.18 µM | – | 139 to 140 °C | – | – | – | – |
| O=S(=O)(NC[C@H]1N[C@H]2CC[C@@H]1C2)c1ccc(-c2ccc(F)cc2)cc1 [Compound 10i, N-((1S,3S,4R)-2-azabicyclo[2.2.1]heptan-3-ylmethyl)-4’-fluoro-[1,1’-biphenyl]-4-sulfonamide] | 8.28 ± 2.21 µM | 32.9 ± 1.36 µM | 21.7 ± 3.52 µM | 18 ± 2.82 µM | 24.4 ± 2.75 µM | ~4 times | 155 °C | – | – | – | – |
| C[C@@H](c1ccccc1)N1[C@H]2CC[C@H](C2)[C@@H]1CNS(=O)(=O)c1ccccc1 [Compound 11b, (1S,3R,4R)-N-((2-((S)-1-phenylethyl)-2-azabicyclo[2.2.1]heptan-3-yl)methyl) benzenesulfonamide] | 52.7 ± 14 µM | – | – | – | – | – | 107 to 109 °C | – | – | – | – |
| Cc1ccc(S(=O)(=O)NC[C@H]2[C@@H]3CC[C@@H](C3)N2[C@@H](C)c2ccccc2)cc1 [Compound 11c, (1S,3R,4R)-4-methyl-N-((2-((S)-1-phenylethyl)-2-azabicyclo[2.2.1]heptan-3-yl)methyl) benzenesulfonamide] | 29.6 ± 12.9 µM | – | 83.2 ± 11.8 µM | – | – | – | 124 to 127 °C | – | – | – | – |
| C[C@@H](c1ccccc1)N1[C@H]2CC[C@H](C2)[C@H]1CNS(=O)(=O)c1ccc(F)cc1 [Compound 11d, 4-fluoro-N-(((1S,3S,4R)-2-((S)-1-phenylethyl)-2-azabicyclo[2.2.1]heptan-3-yl)methyl)benzenesulfonamide] | 43.6 ± 14.5 µM | – | 92.2 ± 12.7 µM | – | – | – | 105 to 107 °C | – | – | – | – |
| CC(c1ccccc1)N1C2CCC(C2)C1CNS(=O)(=O)c1ccc(C(F)(F)F)cc1 (centres unmarked) [Compound 11e] | 16.1 ± 4.95 µM | 38.4 ± 2.61 µM | 33.7 ± 5.13 µM | 39.1 ± 7.14 µM | 37.5 ± 7.8 µM | – | – | – | – | – | – |
| CC(c1ccccc1)N1C2CCC(C2)C1CNS(=O)(=O)c1ccc(-c2ccccc2)cc1 (centres unmarked) [Compound 11f] | 3.09 ± 1.56 µM | 7.66 ± 2.08 µM | 19.3 ± 6.71 µM | 54 ± 16 µM | 38.8 ± 7.88 µM | > 10 times | – | – | – | – | – |
| Cc1ccc(-c2ccc(S(=O)(=O)NCC3C4CCC(C4)N3C(C)c3ccccc3)cc2)cc1 (centres unmarked) [Compound 11g] | 4.26 ± 3.97 µM | 14.1 ± 4.77 µM | 7.23 ± 16.2 µM | 33 ± 18.9 µM | 45.3 ± 17.3 µM | > 10 times | – | – | – | – | – |
| COc1ccc(-c2ccc(S(=O)(=O)NCC3C4CCC(C4)N3C(C)c3ccccc3)cc2)cc1 (centres unmarked) [Compound 11h] | 13.8 ± 2.64 µM | 12.8 ± 1.38 µM | 15.8 ± 2.26 µM | 22.4 ± 4.31 µM | 12.4 ± 1.82 µM | – | – | – | – | – | – |
| CC(c1ccccc1)N1C2CCC(C2)C1CNS(=O)(=O)c1ccc(-c2ccc(F)cc2)cc1 (centres unmarked) [Compound 11i] | 11.2 ± 2.14 µM | 2.98 ± 1.38 µM | 5.29 ± 2.56 µM | 10.3 ± 2.71 µM | 13.1 ± 2.68 µM | – | – | – | – | – | – |
| C[C@@H](c1ccccc1)N1[C@H]2CC[C@H](C2)[C@H]1CNS(=O)(=O)c1ccc(-c2ccccc2F)cc1 [Compound 11j, 2’-fluoro-N-(((1S,3S,4R)-2-((S)-1-phenylethyl)-2-azabicyclo[2.2.1]heptan-3-yl)methyl)-[1,1’-biphenyl]-4-sulfonamide] | 7.15 ± 3.53 µM | 11.3 ± 0.93 µM | 12.4 ± 2.44 µM | 17.3 ± 2.29 µM | 12.3 ± 1.88 µM | – | 95 °C | – | – | – | – |
| C[C@@H](c1ccccc1)N1C[C@@H](CNS(=O)(=O)c2ccc(-c3ccc(F)cc3)cc2)[C@@H]2CC[C@H]1C2 [Compound 12i, 4’-fluoro-N-(((1S,4S,5R)-2-((S)-1-phenylethyl)-2-azabicyclo[3.2.1]octan-4-yl)methyl)-[1,1’-biphenyl]-4-sulfonamide] | 15.1 ± 3.16 µM | 16.4 ± 1.57 µM | 15.1 ± 4.94 µM | 12.8 ± 4.03 µM | 18.4 ± 8.39 µM | – | 128 to 129 °C | – | – | – | – |
| CC(c1ccccc1)N1C2CCC(C2)C1CN(CC1C2CCC(C2)N1C(C)c1ccccc1)S(=O)(=O)c1ccc(-c2ccccc2)cc1 (centres unmarked) [Compound 13f] | 56.1 ± 26.9 µM | 84.4 ± 26.1 µM | 44.5 ± 10.9 µM | – | – | – | – | – | – | – | – |
| C[C@@H](c1ccccc1)N1C(CN(C[C@H]2[C@@H]3CC[C@@H](C3)N2[C@@H](C)c2ccccc2)S(=O)(=O)c2ccc(-c3ccc(F)cc3)cc2)[C@@H]2CC[C@H]1C2 (stereo partly drawn) [Compound 13i, 4’-fluoro-N-(((1S,3R,4R)-2-((S)-1-phenylethyl)-2-azabicyclo[2.2.1]heptan-3-yl)methyl)-N-(((1S,4R)-2-((S)-1-phenylethyl)-2-azabicyclo[2.2.1]heptan-3-yl)methyl)-[1,1’-biphenyl]-4-sulfonamide] | – | – | – | – | – | – | 96 to 98 °C | – | – | – | – |
| N.N.[Cl][Pt][Cl] [cisplatin, reference compound] | – | – | – | – | 10.7 ± 3.3 µM | – | – | 1.78 ± 1.22 µM | 3.02 ± 1.79 µM | 11.8 ± 3.87 µM | 10.3 ± 6.23 µM |
